Starred links: 1 amine or outer side, 2 acyl side, 3 side chain; linkers in the order of their positions; H or OH if unused. Positions of bridges follow the written chain, without caps; N, C: chain ends. Non-standard residues stand in square brackets, D forms with d. Residues, ends and D or L forms follow the SMILES beside them. Adda = CO[C@@H](Cc1ccccc1)[C@@H](C)/C=C(C)/C=C/[C@H](N[*:1])[C@H](C)C(=O)[*:2]; dAsp(3S-Me) = C[C@H](C(=O)[*:3])[C@@H](N[*:1])C(=O)[*:2]; d(γGlu) = O=C(O)[C@@H](CCC(=O)[*:2])N[*:1]; NMeDha = C=C(NC)C(=O)O
How the values were obtained:
Caco-2 cell monolayer = format: in vitro ADME, human
[1] = Binding to plastic (preliminary experiment); format: in vitro ADME
Method: Experiments were performed as previously described, with a few modifications, described as follows. Four solutions of MC-RR (1, 10, 25, and 55 µM) were prepared in the transport buffer (HBSS, 4-(2-Hydroxyethyl)piperazine-1-ethanesulfonic acid (HEPES) 5 mM, pH 7.4) in glass vials and loaded into the donor compartments: 300 µL in compartments A (for A–B transport experiments) and 1000 µL in compartment B (for B–A transport experiments). The final concentration of methanol in the transport buffer for all MC-RR solutions was set at 1.3%, which was previously shown not to alter the integrity of Caco-2 cell monolayers. In a preliminary experiment, the binding of MC-RR to plastic was checked and considered negligible (data not shown). At different time points (1, 2, 4, 6, and 24 h for A–B transport experiments and 1, 2, 4, and 6 h for B–A transport experiments), the whole volume of each compartment was harvested and stored in glass vials at −20 °C until analysis. Due to the toxicity of methanol 1.3% when applied in compartment B for 24 h, this time point was not performed for B–A experiments. Only Caco-2 cell monolayers with a TEER > 250 ohm.cm² before and after transport experiments were used. […]. These threshold values correspond to those preconized by the European Center for the Validation of Alternatives Methods. Four independent experiments were performed.

Caco-2 cell monolayers = conditions: Caco-2 monolayers; ref historical data generated in our laboratory; cited from earlier work
Method: Experiments were performed as previously described, with a few modifications, described as follows. Four solutions of MC-RR (1, 10, 25, and 55 µM) were prepared in the transport buffer (HBSS, 4-(2-Hydroxyethyl)piperazine-1-ethanesulfonic acid (HEPES) 5 mM, pH 7.4) in glass vials and loaded into the donor compartments: 300 µL in compartments A (for A–B transport experiments) and 1000 µL in compartment B (for B–A transport experiments). The final concentration of methanol in the transport buffer for all MC-RR solutions was set at 1.3%, which was previously shown not to alter the integrity ...

Compound | Amount detected in the apical compartment (Caco-2 cell monolayer) | Amount detected in the basolateral compartment (Caco-2 cell monolayer) | Decrease of MC-RR amounts in the basolateral (donor) compartment (Caco-2 cell monolayer) | Involvement of an active efflux mechanism (A–B versus B–A Papp) (Caco-2 cell monolayer) | Binding to plastic [1] | Papp of lucifer yellow corresponding to a TEER value of 250 ohm.cm² (Caco-2 cell monolayers) [×10⁻⁶ cm/s]
C=C1C(=O)N[C@H](C)C(=O)N[C@@H](CCCNC(=N)N)C(=O)N[C@@H](C(=O)O)[C@H](C)C(=O)N[C@@H](CCCNC(=N)N)C(=O)N[C@@H](/C=C/C(C)=C/[C@H](C)[C@H](Cc2ccccc2)OC)[C@H](C)C(=O)N[C@@H](C(=O)O)CCC(=O)N1C [MC-RR, microcystin-RR] (R[Adda][d(γGlu)][NMeDha][dA]R[dAsp(3S-Me)]-OH; lactam N-7) | below the lower LOQ | below the lower LOQ | 25 % of the loaded amount | no involvement of an active efflux mechanism | negligible | 
lucifer yellow |  |  |  |  |  | 0.6
